From ChEMBL document CHEMBL1201862, “PubChem BioAssay data set” (2004)
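Dose response: 5 concentrations. Exposure: 48 h. Format: 96-well plates. Endpoint: linear interpolation; highest concentration if not reached. Here, GI50 denotes the concentration required for 50% inhibition of growth.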 The source made the active and inactive calls. No stated cut-off is given here; in the data, active = GI50 up to about 1.1 µM and inactive = higher.

What was measured:
Assay in all cases: DTP human tumour cell line panel, 48 h
SW-620 = tested on: SW-620
UACC-257 = tested on: UACC-257
UACC-62 = tested on: UACC-62
SF-295 = tested on: SF-295
MDA-N = tested on: MDA-N
HCT-15 = tested on: HCT-15
RXF 393 = tested on: RXF 393
NCI-H23 = tested on: NCI-H23
LOX IMVI = tested on: LOX IMVI
A549 = tested on: A549
OVCAR-5 = tested on: OVCAR-5
HCT-116 = tested on: HCT-116
SK-MEL-5 = tested on: SK-MEL-5
MDA-MB-435 = tested on: MDA-MB-435
SF-268 = tested on: SF-268
SK-MEL-2 = tested on: SK-MEL-2
OVCAR-8 = tested on: OVCAR-8
T47D = tested on: T47D
NCI-H522 = tested on: NCI-H522
SNB-75 = tested on: SNB-75
NCI-H460 = tested on: NCI-H460
CAKI-1 = tested on: CAKI-1
SK-OV-3 = tested on: SK-OV-3
ACHN = tested on: ACHN
BT-549 = tested on: BT-549
RPMI-8226 = tested on: RPMI-8226
Malme-3M = tested on: Malme-3M
A498 = tested on: A498
HOP-62 = tested on: HOP-62
SF-539 = tested on: SF-539
K562 = tested on: K562
TK-10 = tested on: TK-10
COLO 205 = tested on: COLO 205
MDA-MB-231 = tested on: MDA-MB-231
M14 = tested on: M14
U-251 = tested on: U-251
CCRF-CEM = tested on: CCRF-CEM
MOLT-4 = tested on: MOLT-4
HCC 2998 = tested on: HCC 2998
HT-29 = tested on: HT-29
HOP-92 = tested on: HOP-92
UO-31 = tested on: UO-31
786-0 = tested on: 786-0
SK-MEL-28 = tested on: SK-MEL-28
MCF7 = tested on: MCF7
EKVX = tested on: EKVX
NCI/ADR-RES = tested on: NCI/ADR-RES
Hs-578T = tested on: Hs-578T
OVCAR-4 = tested on: OVCAR-4
PC-3 = tested on: PC-3
DU-145 = tested on: DU-145
OVCAR-3 = tested on: OVCAR-3
IGROV-1 = tested on: IGROV-1
SNB-19 = tested on: SNB-19
KM12 = tested on: KM12
HL-60 = tested on: HL-60
NCI-H226 = tested on: NCI-H226
SN12C = tested on: SN12C

Measured: GI50

OC(c1ccc(Br)cc1)(c1cccs1)C1CC1 (centres undefined)
25.4 µM: HCT-15
inactive: SW-620 30.5 µM | UACC-257 27 µM | UACC-62 16.4 µM | SF-295 21.6 µM | MDA-N 20.7 µM | RXF 393 18.6 µM | NCI-H23 22.4 µM | LOX IMVI 21.1 µM | A549 35.7 µM | OVCAR-5 26.7 µM | HCT-116 16.3 µM | SK-MEL-5 18.7 µM | MDA-MB-435 18.1 µM | SF-268 20.7 µM | SK-MEL-2 20.4 µM | OVCAR-8 24.4 µM | T47D 22.8 µM | NCI-H522 18.5 µM | SNB-75 25.8 µM | NCI-H460 22.4 µM | CAKI-1 20.8 µM | SK-OV-3 36.4 µM | ACHN 27 µM | BT-549 24.4 µM | RPMI-8226 21.6 µM | Malme-3M 20.5 µM | A498 21.5 µM | HOP-62 23.3 µM | SF-539 21.4 µM | K562 29.9 µM | TK-10 27.9 µM | COLO 205 19.2 µM | MDA-MB-231 18.3 µM | M14 21.1 µM | U-251 17.8 µM | CCRF-CEM 26.2 µM | MOLT-4 22.1 µM | HCC 2998 23.6 µM | HT-29 23.4 µM | HOP-92 19.7 µM | UO-31 26.7 µM | 786-0 18.3 µM | SK-MEL-28 22.2 µM | MCF7 28.2 µM | EKVX 31.3 µM | NCI/ADR-RES 25.1 µM | Hs-578T 22.3 µM | OVCAR-4 22.7 µM | PC-3 22.8 µM | DU-145 26.1 µM | OVCAR-3 18.8 µM | IGROV-1 15.7 µM | SNB-19 41.1 µM | KM12 17.7 µM | HL-60 20.8 µM

CC(C)(CO)NC(=O)Nc1c(C(F)(F)F)cc(-c2ccccc2)[nH]c1=O
inactive: SW-620 > 100 µM | UACC-257 > 100 µM | UACC-62 > 100 µM | SF-295 > 100 µM | MDA-N > 100 µM | RXF 393 > 100 µM | NCI-H226 > 100 µM | NCI-H23 > 100 µM | LOX IMVI > 100 µM | A549 > 100 µM | OVCAR-5 > 100 µM | HCT-116 > 100 µM | SK-MEL-5 > 100 µM | MDA-MB-435 > 100 µM | SF-268 > 100 µM | SK-MEL-2 > 100 µM | OVCAR-8 > 100 µM | T47D > 100 µM | NCI-H522 > 100 µM | NCI-H460 > 100 µM | CAKI-1 > 100 µM | SK-OV-3 > 100 µM | ACHN > 100 µM | BT-549 > 100 µM | Malme-3M > 100 µM | A498 > 100 µM | HOP-62 > 100 µM | K562 > 100 µM | SN12C > 100 µM | TK-10 > 100 µM | COLO 205 > 100 µM | MDA-MB-231 > 100 µM | M14 > 100 µM | U-251 > 100 µM | CCRF-CEM > 100 µM | MOLT-4 > 100 µM | HCC 2998 > 100 µM | HT-29 > 100 µM | HOP-92 > 100 µM | UO-31 > 100 µM | 786-0 > 100 µM | SK-MEL-28 > 100 µM | MCF7 > 100 µM | EKVX > 100 µM | NCI/ADR-RES > 100 µM | Hs-578T > 100 µM | PC-3 > 100 µM | DU-145 > 100 µM | OVCAR-3 29.4 µM | IGROV-1 > 100 µM | SNB-19 > 100 µM | KM12 > 100 µM
> 100 µM: HCT-15
